Results from patent publication US11555179B2, “Identification of subpopulations of cardiomyocytes” (The University of Hong Kong, priority 2019, dated 2023).

Experiments:
hPSC-CMs = conditions: unsorted hPSC-CMs as currently utilized; cited from earlier work
mouse models of DCT = conditions: in vivo; cited from earlier work
[1] = in vivo; cited from earlier work
CD36^+ hESC-CMs = assay: Doxorubicin-induced cardiotoxicity (XTT viability, TMRE/MTG Δψm); assay type: cell-based, human; conditions: for effect on cell viability upon dox treatment (XTT): pre-treatment (NAC 1 mM, 1 hr), FIGS. 5I-K show mixed, CD36^+ and CD36^− hESC-CMs
Procedure: FIGS. 5A and 5B are bar graphs showing the normalized levels of cell viability (A) and mitochondrial membrane potential Δψm (B) of mixed (unsorted) hESC-CMs, CD36^+ hESC-CMs, and CD36^− hESC-CMs after exposure to doxorubicin (dox). The hESC-CMs were treated with 1 mM dox for 24 hrs. Cell viability and mitochondrial membrane potential Δψm were determined by the XTT and TMRE/MTG assays (n=9 and 7), respectively, and normalized to untreated hESC-CMs.
(C) and (D): viability and Δψm for unsorted hESC-CMs; (E) and (F): viability and Δψm for CD36^+ hESC-CMs; (G) and (H): viability and Δψm for CD36^− hESC-CMs. The cells in the “Dox” groups were treated with 1 mM dox for 24 hrs; the cells in the “Dox+DRZ” groups were pre-treated with […] DRZ for 1 hr, followed by co-treatment with 1 mM dox for 24 hrs. Cell viability and mitochondrial membrane potential Δψm were determined by the XTT and TMRE/MTG assays (n=7 and 9), respectively, and normalized to untreated hESC-CMs (i.e., the “Control” groups). *p<0.05, **p<0.01, ***p<0.001.
The cells in the “Dox” groups were treated with 1 mM dox for 24 hrs; the cells in the “Dox+NAC” groups were pre-treated with 1 mM NAC for 1 hr, followed by co-treatment with 1 mM dox for 24 hrs. Cell viability was determined by the XTT assay (n=4) and normalized to untreated cells (i.e., the “Control” groups).

[2] = dexrazoxane-treated pediatric patients, two randomized studies; cited from earlier work
[3] = doses exceeding 550 mg/m^2; cited from earlier work
[4] = system: CD172A^+/CD36^+/− hESC-CMs; conditions: 100 μM hydrogen peroxide for 30 min
Procedure: (§1) FIGS. 4A-4D are bar graphs showing the relative levels of mitochondrial superoxide (A), mitochondrial membrane potential Δψm (B), nuclear condensation (C), and cell viability (D) in CD172A^+/CD36^+/−, CD172A^+/CD36^+, and CD172A^+/CD36^− hECS-CMs after exposure to 100 μM hydrogen peroxide for 30 min. The relative levels of mitochondrial superoxide, mitochondrial membrane potential, nuclear condensation, and cell viability were determined using the MitoSOX™ red dye (n=5), TMRE staining (n=5, calibrated by mitochondrial mass based on the result of MTG staining), Hoechst staining (n=5), and PrestoBlue® staining (n=9), respectively. *p<0.05, **p<0.01, ***p<0.001.
(§2) The responses of mitochondrial function to oxidative stress were examined in subpopulations of hESC-CMs.

CD172A^+/CD36^+ hESC-CMs [5] = conditions: 100 μM hydrogen peroxide for 30 min
Procedure: as §1, §2

CD172A^+/CD36^− hESC-CMs [6] = conditions: 100 μM hydrogen peroxide for 30 min
Procedure: as §1, §2

CD172A^+/CD36^+ hESC-CMs [7] = assay: Mitochondrial membrane potential (TMRE) with oleic acid supplementation; assay type: cell-based, human; conditions: nutrient-deficient media lacking fatty acids, plus oleic acid, FIG. 3B
Procedure: (§3) FIG. 3A is a bar graph showing the uptake of fatty acid (FA) by C[…]^+/CD36^+ (black) and C[…]^+/CD36^- (white) hESC-CMs. The FA uptake assay was performed using a BODIPY-labeled C16 palmitate analog (n=6). FIG. 3B is a bar graph showing the relative levels of mitochondrial membrane potential Δψm in C[…]^+/CD36^+ and C[…]^+/CD36^- hESC-CMs cultured in the absence (black) and presence (gray) of oleic acid (n=5). […] In addition to enhanced mitochondrial output, adult CMs were characterized by their preference for fatty acid as fuel for energy production. In CMs, CD36 functions as a fatty acid translocase to facilitate the uptake of long-chain fatty acids such as palmitic and oleic acids, thus increased level of this protein is expected to enhance fatty acid entry into cells. […] Additional experiments were performed to test whether increased fatty acid uptake led to increased metabolic output. When cultured in nutrient-deficient media lacking fatty acids, C[…]^+/CD36^+ and C[…]^+/CD36^- CMs had similar Δψm.

CD172A^+/CD36^− hESC-CMs [8] = assay: as above; assay type: cell-based, human; conditions: nutrient-deficient media lacking fatty acids, plus oleic acid, FIG. 3B
Procedure: as §3

[9] = then co-treatment with 1 mM dox 24 hrs

Question: With `CC(=O)N[C@@H](CS)C(=O)O` [N-acetylcysteine] as the molecule, how does the “protection of hPSC-CMs against DCT” value (hPSC-CMs) read?
Answer: rescued

Question: And the “efficacy in mouse models of DCT” value (mouse models of DCT)?
Answer: effective

Question: And the “outcome in clinical trials (DCT)” value [1]?
Answer: unsuccessful

Question: And the “effect on cell viability upon dox treatment (XTT)” value (CD36^+ hESC-CMs; [9])?
Answer: did not increase cell viability

Question: Which “protection of hPSC-CMs against DCT” value (hPSC-CMs) does the source give for `C[C@@H](CN1CC(=O)NC(=O)C1)N1CC(=O)NC(=O)C1` [dexrazoxane] here?
Answer: failed to protect

Question: And the “incidence of second primary malignancies (myelodysplastic syndrome and acute myeloid leukemia)” value [2]?
Answer: threefold increase

Question: And the “protective effect against DCT (viability and Δψm)” value (CD36^+ hESC-CMs; 200 mM DRZ pre-treatment 1 hr, then co-treatment with 1 mM dox 24 hrs, CD36^+ hESC-CMs, FIGS. 5E, 5F)?
Answer: responded to the protective effect

Question: With `COc1cccc2c1C(=O)c1c(O)c3c(c(O)c1C2=O)C[C@@](O)(C(=O)CO)C[C@@H]3O[C@H]1C[C@H](N)[C@H](O)[C@H](C)O1` [dox, Doxorubicin] as the molecule, how does the “cell viability upon dox treatment (XTT)” value (CD36^+ hESC-CMs; 1 mM dox for 24 hrs, CD36^+ hESC-CMs compared to mixed (unsorted) or CD36^− CMs, FIG. 5A) read?
Answer: more severe decrease

Question: And the “mitochondrial membrane potential (Δψm) upon dox treatment (TMRE/MTG)” value (CD36^+ hESC-CMs; 1 mM dox for 24 hrs, CD36^+ hESC-CMs compared to mixed (unsorted) or CD36^− CMs, FIG. 5B)?
Answer: more severe decrease

Question: And the “onset of dox-induced cell degeneration” value (CD36^+ hESC-CMs; CD36^+ hESC-CMs compared to mixed (unsorted) or CD36^− CMs)?
Answer: accelerated onset

Question: What about the “incidence of congestive heart failure” value [3] of the same molecule?
Answer: exceeds 30%

Question: For `OO` [hydrogen peroxide], which “mitochondrial superoxide (MitoSOX red dye)” value (shortened to “mitochondrial superoxide”) ([4]; FIG. 4A) is on record?
Answer: 2.2±0.4 fold

Question: And the “relative mitochondrial membrane potential Δψm (TMRE, calibrated by MTG)” value ([4]; FIG. 4B)?
Answer: 0.30±0.03

Question: What about the “nuclear condensation (Hoechst staining)” value ([4]; FIG. 4C) of the same molecule?
Answer: 46±15%

Question: And the “mitochondrial superoxide” value (CD172A^+/CD36^+ hESC-CMs [5]; FIG. 4A)?
Answer: 3.5±0.3 fold

Question: And the “relative mitochondrial membrane potential Δψm (TMRE, calibrated by MTG)” value (CD172A^+/CD36^+ hESC-CMs [5]; FIG. 4B)?
Answer: 0.17±0.03

Question: What about the “nuclear condensation (Hoechst staining)” value (CD172A^+/CD36^+ hESC-CMs [5]; FIG. 4C) of the same molecule?
Answer: 73±8%

Question: And the “mitochondrial superoxide” value (CD172A^+/CD36^− hESC-CMs [6]; FIG. 4A)?
Answer: 1.7±1.2 fold

Question: And the “relative mitochondrial membrane potential Δψm (TMRE, calibrated by MTG)” value (CD172A^+/CD36^− hESC-CMs [6]; FIG. 4B)?
Answer: 0.35±0.04

Question: And the “nuclear condensation (Hoechst staining)” value (CD172A^+/CD36^− hESC-CMs [6]; FIG. 4C)?
Answer: 32%±11

Question: What does the source list for `CCCCCCCC/C=C\CCCCCCCC(=O)O` [oleic acid]?
Answer: increase in magnitude of Δψm on supplementation with oleic acid (CD172A^+/CD36^+ hESC-CMs [7]): 43.0%; increase in magnitude of Δψm on supplementation with oleic acid (CD172A^+/CD36^− hESC-CMs [8]): 22.9%

Question: Which “effect on cell viability upon dox treatment (XTT)” value (CD36^+ hESC-CMs; [9]) does the source give for vitamin E here?
Answer: did not increase cell viability
